According to PMC7531004, “Discovery of gramicidin A analogues with altered activities by multidimensional screening of a one-bead-one-compound library” (Nature Communications, 2020):
Where a SMILES comes first, the peptide text is derived from it. [ ]: non-standard residue; d: D form. The star is where a group is joined. NHCH2CH2OH = OCCN*; For = O=C*

Experiments:
[1] = H+/Na+ transport assay of bead-derived peptides (one-point); type: biochemical; design: key: relative activity; mean of two control wells = 1.00; details: bead-derived peptide solution, EYPC/EYPG LUVs;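 also: relative to parent gramicidin A activity set to 1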
Method in brief: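 Pyranine (1.0 mM)-loaded LUVs containing egg yolk phosphatidylglycerol were prepared by film hydration, sonication and extrusion, then mixed with diluted bead-derived peptide in 96-well format and vortexed 30 min at room temperature. Fluorescence was normalized between untreated LUVs (0%) and Triton X-100 lysis (100%).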

[2] = tested on: P388 mouse leukemia cells; details: 92 h
Method in brief: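 First, library peptide stocks are diluted 250-fold in RPMI1640 with 10% heat-inactivated FBS. Next, they are mixed with P388 cells to give 1 × 10^4 cells/mL and incubated 92 h at 37 °C, 5% CO2. Finally, viability (%) is scored by WST-1 absorbance at 415 nm.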

[3] = tested on: Streptococcus pyogenes SSI-9; assay: Antibacterial activity assay of bead-derived peptides (three concentrations); type: cell-based; design: key: +++: inhibition by the 640-fold diluted peptide solution; ++: inhibition by the 160-fold diluted solution; +: inhibition by the 40-fold diluted solution; -: no inhibition; details: S. pyogenes, bead-derived peptide solution, three concentrations
Method in brief: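 Bead-derived library peptide stocks in DMSO were tested undiluted and after 4- and 16-fold DMSO dilution against S. pyogenes SSI-9 (2 × 10^5 CFU/well) in cation-adjusted Mueller Hinton Broth with 5% laked horse blood. After 18 h at 37 °C, wells were scored for precipitation of grown cells.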

SMILES | H+/Na+ transport activity normalized against the value of 1 (1.00) [1] | cell viability/% [2] [%] | antibacterial activity [3]
CC(C)C[C@@H](NC(=O)[C@H](C)NC(=O)[C@H](NC(=O)[C@H](C)NC(=O)CNC(=O)[C@@H](NC=O)C(C)C)[C@H](C)O)C(=O)N[C@H](C(=O)N[C@@H](C(=O)N[C@@H](Cc1c[nH]c2ccccc12)C(=O)N[C@@H](C(=O)N[C@@H](Cc1c[nH]c2ccccc12)C(=O)N[C@H](CC(C)C)C(=O)N[C@@H](Cc1c[nH]c2ccccc12)C(=O)N[C@H](CC(C)C)C(=O)N[C@@H](Cc1c[nH]c2ccccc12)C(=O)NCCO)C(C)C)C(C)C)C(C)C [compound 9112] (For-VGA[dT]A[dL]V[dV]W[dV]W[dL]W[dL]W-NHCH2CH2OH) | 1.10 | 72.6 | -
CC(C)C[C@@H](NC(=O)[C@H](C)NC(=O)[C@H](NC(=O)[C@H](C)NC(=O)CNC(=O)[C@@H](NC=O)C(C)C)[C@H](C)O)C(=O)N[C@H](C(=O)N[C@H](CC(C)C)C(=O)N[C@@H](Cc1c[nH]c2ccccc12)C(=O)N[C@H](CC(C)C)C(=O)N[C@@H](Cc1c[nH]c2ccccc12)C(=O)N[C@@H](C(=O)N[C@@H](Cc1c[nH]c2ccccc12)C(=O)N[C@@H](C(=O)N[C@@H](Cc1c[nH]c2ccccc12)C(=O)NCCO)C(C)C)C(C)C)C(C)C [compound 9125] (For-VGA[dT]A[dL]V[dL]W[dL]W[dV]W[dV]W-NHCH2CH2OH) | 1.04 | 44.2 | -
CC(C)C[C@@H](NC(=O)[C@H](C)NC(=O)[C@H](NC(=O)[C@H](C)NC(=O)CNC(=O)[C@@H](NC=O)C(C)C)[C@H](C)O)C(=O)N[C@H](C(=O)N[C@H](CC(C)C)C(=O)N[C@@H](Cc1c[nH]c2ccccc12)C(=O)N[C@@H](C(=O)N[C@@H](Cc1c[nH]c2ccccc12)C(=O)N[C@@H](C(=O)N[C@@H](Cc1c[nH]c2ccccc12)C(=O)N[C@H](CC(C)C)C(=O)N[C@@H](Cc1c[nH]c2ccccc12)C(=O)NCCO)C(C)C)C(C)C)C(C)C [compound 9145] (For-VGA[dT]A[dL]V[dL]W[dV]W[dV]W[dL]W-NHCH2CH2OH) | 1.03 | 70.9 | -
CC(C)C[C@@H](NC(=O)[C@H](C)NC(=O)[C@H](NC(=O)[C@H](C)NC(=O)CNC(=O)[C@@H](NC=O)C(C)C)C(C)C)C(=O)N[C@H](C(=O)N[C@@H](C(=O)N[C@@H](Cc1c[nH]c2ccccc12)C(=O)N[C@@H](C(=O)N[C@@H](Cc1c[nH]c2ccccc12)C(=O)N[C@@H](C(=O)N[C@@H](Cc1c[nH]c2ccccc12)C(=O)N[C@H](CC(C)C)C(=O)N[C@@H](Cc1c[nH]c2ccccc12)C(=O)NCCO)C(C)C)C(C)C)C(C)C)C(C)C [compound 9192] (For-VGA[dV]A[dL]V[dV]W[dV]W[dV]W[dL]W-NHCH2CH2OH) | 1.07 | 100.0 | -
CC(C)C[C@@H](NC(=O)[C@H](C)NC(=O)CNC(=O)[C@@H](NC=O)C(C)C)C(=O)N[C@@H](C)C(=O)N[C@@H](C(=O)N[C@H](C(=O)N[C@@H](C(=O)N[C@@H](Cc1c[nH]c2ccccc12)C(=O)N[C@@H](C(=O)N[C@@H](Cc1c[nH]c2ccccc12)C(=O)N[C@@H](C(=O)N[C@@H](Cc1c[nH]c2ccccc12)C(=O)N[C@H](CC(C)C)C(=O)N[C@@H](Cc1c[nH]c2ccccc12)C(=O)NCCO)C(C)C)C(C)C)C(C)C)C(C)C)C(C)C [compound 9223] (For-VGA[dL]A[dV]V[dV]W[dV]W[dV]W[dL]W-NHCH2CH2OH) | 1.03 | 100.0 | +
CNC(=O)C[C@@H](NC(=O)[C@@H](NC(=O)[C@@H](CC(C)C)NC(=O)[C@H](C)NC(=O)[C@H](NC(=O)[C@H](C)NC(=O)CNC(=O)[C@@H](NC=O)C(C)C)C(C)C)C(C)C)C(=O)N[C@@H](Cc1c[nH]c2ccccc12)C(=O)N[C@H](CC(C)C)C(=O)N[C@@H](Cc1c[nH]c2ccccc12)C(=O)N[C@H](CC(C)C)C(=O)N[C@@H](Cc1c[nH]c2ccccc12)C(=O)N[C@@H](C(=O)N[C@@H](Cc1c[nH]c2ccccc12)C(=O)NCCO)C(C)C [compound 9229] (For-VGA[dV]A[dL]V[dD](NHMe)W[dL]W[dL]W[dV]W-NHCH2CH2OH) | 1.15 | 100.0 | -
CC(C)C[C@@H](NC(=O)[C@H](Cc1c[nH]c2ccccc12)NC(=O)[C@H](NC(=O)[C@H](Cc1c[nH]c2ccccc12)NC(=O)[C@@H](CC(C)C)NC(=O)[C@H](Cc1c[nH]c2ccccc12)NC(=O)[C@H](NC(=O)[C@@H](NC(=O)[C@H](NC(=O)[C@H](C)NC(=O)[C@H](NC(=O)[C@H](C)NC(=O)CNC(=O)[C@@H](NC=O)C(C)C)C(C)C)C(C)C)C(C)C)C(C)C)C(C)C)C(=O)N[C@@H](Cc1c[nH]c2ccccc12)C(=O)NCCO [compound 9293] (For-VGA[dV]A[dV]V[dV]W[dL]W[dV]W[dL]W-NHCH2CH2OH) | 1.05 | 4.3 | ++
CNC(=O)C[C@@H](NC(=O)[C@@H](NC(=O)[C@H](NC(=O)[C@H](C)NC(=O)[C@@H](CC(C)C)NC(=O)[C@H](C)NC(=O)CNC(=O)[C@@H](NC=O)C(C)C)C(C)C)C(C)C)C(=O)N[C@@H](Cc1c[nH]c2ccccc12)C(=O)N[C@H](CC(C)C)C(=O)N[C@@H](Cc1c[nH]c2ccccc12)C(=O)N[C@H](CC(C)C)C(=O)N[C@@H](Cc1c[nH]c2ccccc12)C(=O)N[C@H](CC(C)C)C(=O)N[C@@H](Cc1c[nH]c2ccccc12)C(=O)NCCO [compound 9336] (For-VGA[dL]A[dV]V[dD](NHMe)W[dL]W[dL]W[dL]W-NHCH2CH2OH) | 1.18 | 100.0 | -
CNC(=O)C[C@@H](NC(=O)[C@H](C)NC(=O)[C@@H](CC(C)C)NC(=O)[C@H](C)NC(=O)CNC(=O)[C@@H](NC=O)C(C)C)C(=O)N[C@H](C(=O)N[C@@H](C(=O)N[C@@H](Cc1c[nH]c2ccccc12)C(=O)N[C@H](CC(C)C)C(=O)N[C@@H](Cc1c[nH]c2ccccc12)C(=O)N[C@@H](C(=O)N[C@@H](Cc1c[nH]c2ccccc12)C(=O)N[C@H](CC(C)C)C(=O)N[C@@H](Cc1c[nH]c2ccccc12)C(=O)NCCO)C(C)C)C(C)C)C(C)C [compound 9352] (For-VGA[dL]A[dD](NHMe)V[dV]W[dL]W[dV]W[dL]W-NHCH2CH2OH) | 1.18 | 100.0 | -
CC(C)C[C@@H](NC(=O)[C@H](Cc1c[nH]c2ccccc12)NC(=O)[C@H](NC(=O)[C@H](Cc1c[nH]c2ccccc12)NC(=O)[C@H](NC(=O)[C@H](Cc1c[nH]c2ccccc12)NC(=O)[C@H](NC(=O)[C@@H](NC(=O)[C@H](NC(=O)[C@H](C)NC(=O)[C@H](NC(=O)[C@H](C)NC(=O)CNC(=O)[C@@H](NC=O)C(C)C)[C@H](C)O)C(C)C)C(C)C)C(C)C)C(C)C)C(C)C)C(=O)N[C@@H](Cc1c[nH]c2ccccc12)C(=O)NCCO [compound 9354] (For-VGA[dT]A[dV]V[dV]W[dV]W[dV]W[dL]W-NHCH2CH2OH) | 1.16 | 100.0 | -
CC(C)C[C@@H](NC(=O)[C@H](C)NC(=O)CNC(=O)[C@@H](NC=O)C(C)C)C(=O)N[C@@H](C)C(=O)N[C@H](CC(C)C)C(=O)N[C@H](C(=O)N[C@H](CC(C)C)C(=O)N[C@@H](Cc1c[nH]c2ccccc12)C(=O)N[C@H](CC(C)C)C(=O)N[C@@H](Cc1c[nH]c2ccccc12)C(=O)N[C@@H](C(=O)N[C@@H](Cc1c[nH]c2ccccc12)C(=O)N[C@H](CC(C)C)C(=O)N[C@@H](Cc1c[nH]c2ccccc12)C(=O)NCCO)C(C)C)C(C)C [compound 9473] (For-VGA[dL]A[dL]V[dL]W[dL]W[dV]W[dL]W-NHCH2CH2OH) | 1.04 | 0.0 | -
CC(C)C[C@@H](NC(=O)[C@H](C)NC(=O)[C@H](NC(=O)[C@H](C)NC(=O)CNC(=O)[C@@H](NC=O)C(C)C)C(C)C)C(=O)N[C@H](C(=O)N[C@@H](C(=O)N[C@@H](Cc1c[nH]c2ccccc12)C(=O)N[C@H](CC(C)C)C(=O)N[C@@H](Cc1c[nH]c2ccccc12)C(=O)N[C@@H](C(=O)N[C@@H](Cc1c[nH]c2ccccc12)C(=O)N[C@@H](C(=O)N[C@@H](Cc1c[nH]c2ccccc12)C(=O)NCCO)C(C)C)C(C)C)[C@H](C)O)C(C)C [compound 9487] (For-VGA[dV]A[dL]V[dT]W[dL]W[dV]W[dV]W-NHCH2CH2OH) | 1.15 | 100.0 | -
CNC(=O)C[C@@H](NC(=O)[C@@H](NC(=O)[C@H](NC(=O)[C@H](C)NC(=O)[C@@H](CC(C)C)NC(=O)[C@H](C)NC(=O)CNC(=O)[C@@H](NC=O)C(C)C)C(C)C)C(C)C)C(=O)N[C@@H](Cc1c[nH]c2ccccc12)C(=O)N[C@@H](C(=O)N[C@@H](Cc1c[nH]c2ccccc12)C(=O)N[C@H](CC(C)C)C(=O)N[C@@H](Cc1c[nH]c2ccccc12)C(=O)N[C@@H](C(=O)N[C@@H](Cc1c[nH]c2ccccc12)C(=O)NCCO)C(C)C)C(C)C [compound 9521] (For-VGA[dL]A[dV]V[dD](NHMe)W[dV]W[dL]W[dV]W-NHCH2CH2OH) | 1.14 | 100.0 | -
